This assay deals with NIH/3T3 fibroblasts. Kind of assay: β-gal activity associated with senescence, etoposide-induced. Type of assay: cell-based, mouse. As to conditions: 12.5 µM etoposide 24 h alone; control 8.86%. Here is the method:
HaCaT and NIH/3T3 cells were seeded in 12-well plates at a density of 1.5 x 10^5 or 2.5 x 10^4 cells/well, respectively, and adhered for 24 h. Cell senescence was then induced in the HaCaT and NIH/3T3 lines by exposure to 100 µM etoposide (Sigma-Aldrich, St. Louis, MO, USA) for 72 h or 12.5 µM etoposide for 24 h, respectively. After the incubation period, senescent HaCaT and NIH/3T3 cells were treated in the absence or presence of EO (0.16 mg/mL) or HRW (0.8 µg/mL) for 24 h. In the case of NIH/3T3 cells, they were further treated for 24 h with bacterial cellulose membrane extract impregnated with glycerol and 2 µg/cm2 of extract with phenolic compounds obtained from wastewater from hydrodistillation (BC-G-HRW2), prepared from sterile samples (10 cm 2) incubated in 10 ml of DMEM exposure medium. As a control, cells not treated with etoposide were incubated with DMEM exposure medium or similarly prepared BC-G and BC-G-HRW2 membrane extracts. […] Finally, senescent cells were quantified using an inverted microscope (Carl Zeiss, Oberkochen, Germany) at 20x magnification, determining the % of β-gal-positive cells in randomly selected fields in four different images obtained in at least 3 independent experiments performed in duplicate.

For the compound `COc1cc([C@@H]2c3cc4c(cc3[C@@H](O[C@@H]3O[C@@H]5CO[C@@H](C)O[C@H]5[C@H](O)[C@H]3O)[C@H]3COC(=O)[C@H]23)OCO4)cc(OC)c1O` [etoposide], the “number of β-gal-positive associated senescent NIH/3T3 cells” value was 44.11%.

(Values after patent EP4173633B1, “PRODUCTS COMPRISING ESSENTIAL OIL OR EXTRACT WITH PHENOLIC COMPOUNDS OBTAINED FROM THE RESIDUAL WATER OF THE HYDRODISTILLATION OF EUCALYPTUS GLOBULUS LEAVES AND THEIR USES” (RAIZ - Instituto De Investigação Da Floresta E Papel, priority 2021, dated 2023).)
